# Experimental data: patent publication US7186672B2, “Fungicidal mixtures” (BASF Aktiengesellschaft, priority 2001, dated 2007)
# System: Erysiphe [syn. Blumeria] graminis forma specialis tritici
# Test: Protective activity against mildew of wheat (potted wheat seedlings, greenhouse)
# Assay type: in vivo
# Conditions: wheat cv. Kanzler, 7 days
# Experimental: The active compounds, separately or together, were formulated as a 10% emulsion in a mixture of 63% by weight of cyclohexanone and 27% by weight of emulsifier, and diluted with water to the desired concentration.
# Evaluation was carried out by determining the infected leaf areas in percent. These percentages were converted into efficacies. The efficacy (W) was calculated as follows using Abbot's formula: […] • α corresponds to the fungal infection of the treated plants in % and • β corresponds to the fungal infection of the untreated (control) plants in %
# An efficacy of 0 means that the infection level of the treated plants corresponds to that of the untreated control plants; an efficacy of 100 means that the treated plants were not infected.
# The expected efficacies of the mixtures of the active compounds were determined using Colby's formula [R. S. Colby, Weeds 15, 20–22 (1967)] and compared with the observed efficacies. Colby's formula: E=x+y−x·y/100 • E expected efficacy, expressed in % of the untreated control, when using the mixture of the active compounds A and B at the concentrations a and b • x efficacy, expressed in % of the untreated control, when using active compound A at a concentration of a • y efficacy, expressed in % of the untreated control, when using active compound B at a concentration of b.
# Protective Activity Against Mildew of Wheat Caused by Erysiphe [syn. Blumeria] graminis forma specialis tritici
# Leaves of potted wheat seedlings of the cultivar “Kanzler” were sprayed to runoff point with an aqueous preparation of active compound which had been prepared from a stock solution made of 10% of active compound, 85% of cyclohexanone and 5% of emulsifier and, 24 hours after the spray coating had dried on, dusted with spores of mildew of wheat (Erysiphe [syn. Blumeria] graminis forma specialis. tritici). The test plants were then placed in a greenhouse at 20–24° C. and 60–90% relative atmospheric humidity. After 7 days, the extent of the mildew development was determined visually in % infection of the total leaf area.
# The visually determined percentages of infected leaf area were converted into efficacies as % of the untreated control. An efficacy of 0 means that the infection level of the treated plants corresponds to that of the untreated control; an efficacy of 100 means 0% infection. The expected efficacies of the combinations of active compounds were determined using Colby's formula (Colby, S. R. (Calculating synergistic and antagonistic responses of herbicide Combinations”, Weeds, 15, pp. 20–22, 1967) and compared with the observed efficacies.
# [1] = 0.6 ppm active compound in the spray liquor
# [2] = 1.25 ppm active compound in the spray liquor
Molecule,Efficacy in % of the untreated control [1] [%],Efficacy in % of the untreated control [2] [%],Efficacy in % of the untreated control (2.5 ppm active compound in the spray liquor) [%],Efficacy in % of the untreated control (0.3 ppm active compound in the spray liquor) [%]
pyraclostrobin [II-6],36,47,57,–
"Fc1ccc([C@]2(Cn3cncn3)O[C@H]2c2ccccc2Cl)cc1 (racemic) [III.a, (2RS,3SR)-1-[3-(2-chlorophenyl)-2-(4-fluorophenyl)-oxiran-2-ylmethyl]-1H-1,2,4-triazole]",4,4,–,4
